Structures are written as SMILES. Where two headings read alike, the source gives them in different places.

What all share (assay): Kinase panel profiling at 1 µmol/L (MSA or IMAP), percentage inhibition
Holding throughout (type): biochemical

Assay [1] deals with panel of 255 wild-type kinases (Homo sapiens, UniProt Q13557). To be noted: CaMK2δ kinase assay; 1 µmol/L single concentration; read-out: %-inhibition CaMK2δ.
Assay [2] has as its target panel of 255 wild-type kinases (Homo sapiens, UniProt Q9P286). To be noted: PAK5; 1 µmol/L single concentration; read-out: %-inhibition, PAK5.
The target in assay [3] is panel of 255 wild-type kinases (Homo sapiens, UniProt P51957). The note with it: NEK4; 1 µmol/L single concentration; read-out: %-inhibition, NEK4.
Assay [4] concerns the target panel of 255 wild-type kinases (Homo sapiens, UniProt O75116). To be noted: kinase ROCK2; 1 µmol/L single concentration; read-out: %-inhibition at 1 µmol/L, ROCK2.
The target in assay [5] is panel of 255 wild-type kinases (Homo sapiens, UniProt P09619). The note with it: kinase PDGFRβ; 1 µmol/L single concentration; read-out: %-inhibition at 1 µmol/L, PDGFRβ.
In assay [6] the target is panel of 255 wild-type kinases (Homo sapiens, UniProt Q07912). To be noted: ACK kinase assay; 1 µmol/L single concentration; read-out: %-inhibition ACK.
Assay [7] addresses panel of 255 wild-type kinases (Homo sapiens, UniProt P50750). To be noted: CDK9/CycT1 kinase assay; 1 µmol/L single concentration; read-out: %-inhibition CDK9/CycT1.
In assay [8] the target is panel of 255 wild-type kinases (Homo sapiens, UniProt P06239). To be noted: read-out: %-inhibition at 1 µmol/L, LCK.
Assay [9] deals with T1, panel of 255 wild-type kinases (Homo sapiens, UniProt P15735).
T1 sequence (P15735 1-406): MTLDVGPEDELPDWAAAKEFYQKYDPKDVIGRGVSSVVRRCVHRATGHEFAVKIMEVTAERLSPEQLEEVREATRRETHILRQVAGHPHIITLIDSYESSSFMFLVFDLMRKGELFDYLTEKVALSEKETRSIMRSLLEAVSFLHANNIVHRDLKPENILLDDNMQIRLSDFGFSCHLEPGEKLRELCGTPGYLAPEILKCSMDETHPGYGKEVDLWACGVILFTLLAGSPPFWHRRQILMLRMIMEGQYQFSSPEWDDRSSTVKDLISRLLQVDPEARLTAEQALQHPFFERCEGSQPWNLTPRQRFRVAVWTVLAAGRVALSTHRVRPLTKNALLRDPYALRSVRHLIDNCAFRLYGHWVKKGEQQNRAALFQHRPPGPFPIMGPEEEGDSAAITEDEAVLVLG
The note with it: kinase PHKG2; 1 µmol/L single concentration; read-out: %-inhibition at 1 µmol/L, PHKG2.

For assay [10], the target named is T2, panel of 255 wild-type kinases (Homo sapiens, UniProt Q13043).
T2 sequence (Q13043 1-487): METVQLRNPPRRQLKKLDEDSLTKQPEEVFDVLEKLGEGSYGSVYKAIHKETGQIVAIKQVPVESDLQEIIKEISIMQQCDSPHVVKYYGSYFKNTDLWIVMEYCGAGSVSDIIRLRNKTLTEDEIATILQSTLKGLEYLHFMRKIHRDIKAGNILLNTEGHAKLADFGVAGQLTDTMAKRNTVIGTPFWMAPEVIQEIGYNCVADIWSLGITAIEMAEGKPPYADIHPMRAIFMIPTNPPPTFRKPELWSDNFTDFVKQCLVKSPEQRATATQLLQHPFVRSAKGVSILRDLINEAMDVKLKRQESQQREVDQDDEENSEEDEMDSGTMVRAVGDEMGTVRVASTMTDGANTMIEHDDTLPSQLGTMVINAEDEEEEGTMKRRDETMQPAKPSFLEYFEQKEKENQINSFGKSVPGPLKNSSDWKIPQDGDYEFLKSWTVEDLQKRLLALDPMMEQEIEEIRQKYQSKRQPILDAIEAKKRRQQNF
To be noted: MST1; 1 µmol/L single concentration; read-out: %-inhibition, MST1.

Assay [11] concerns the target panel of 255 wild-type kinases (Homo sapiens, UniProt Q14012). The note with it: CaMK1α kinase assay; 1 µmol/L single concentration; read-out: %-inhibition CaMK1α.
The target of assay [12] is T3, panel of 255 wild-type kinases (Homo sapiens, UniProt O15111).
T3 sequence (O15111 1-745): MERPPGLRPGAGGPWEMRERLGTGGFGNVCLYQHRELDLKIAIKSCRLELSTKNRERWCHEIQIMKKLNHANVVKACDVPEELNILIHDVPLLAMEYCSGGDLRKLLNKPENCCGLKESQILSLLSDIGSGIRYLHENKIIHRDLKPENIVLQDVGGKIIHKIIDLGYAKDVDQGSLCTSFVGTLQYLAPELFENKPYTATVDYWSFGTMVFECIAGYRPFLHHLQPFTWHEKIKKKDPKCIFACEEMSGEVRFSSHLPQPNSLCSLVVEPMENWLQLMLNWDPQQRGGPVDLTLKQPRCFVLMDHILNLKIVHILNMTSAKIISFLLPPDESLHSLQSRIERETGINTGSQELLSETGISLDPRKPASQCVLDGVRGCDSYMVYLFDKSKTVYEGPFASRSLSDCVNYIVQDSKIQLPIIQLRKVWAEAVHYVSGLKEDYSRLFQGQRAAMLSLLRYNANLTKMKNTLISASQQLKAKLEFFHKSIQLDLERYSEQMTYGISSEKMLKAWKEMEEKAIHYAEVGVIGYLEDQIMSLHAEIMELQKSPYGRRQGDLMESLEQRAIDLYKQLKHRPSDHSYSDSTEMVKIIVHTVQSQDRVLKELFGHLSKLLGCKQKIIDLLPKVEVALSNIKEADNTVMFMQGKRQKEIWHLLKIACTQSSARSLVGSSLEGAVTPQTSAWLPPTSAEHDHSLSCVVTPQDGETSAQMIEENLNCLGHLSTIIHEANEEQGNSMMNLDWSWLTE
To be noted: kinase IKKα; 1 µmol/L single concentration; read-out: %-inhibition at 1 µmol/L, IKKα.

Assay [13] has as its target panel of 255 wild-type kinases (Homo sapiens, UniProt Q16816). To be noted: kinase PHKG1; 1 µmol/L single concentration; read-out: %-inhibition at 1 µmol/L, PHKG1.
Setting [14] is: kinase LCK, 1 µmol/L single concentration.

`COc1ccc(CN2C3CC2CN(c2ccc(-c4cc(OCC(C)(C)O)cn5ncc(C#N)c45)cn2)C3)cn1` [selpercatinib]: the inhibition at 1 µM in [1] was 1.36%; in assay [2], 9%; in [3], 0.858%; in [4], -0.275%; in assay [5], 94%; in assay [6] it was 4.48%. In addition, the inhibition at 1 µM in [7] is 2.54%; in [8] (setting [14]) it was 77%; in assay [9], 6.5%; in [10], -2.33%; in [11], -5.55%; in assay [12] it was -1.36%. Also, the inhibition at 1 µM in assay [13] came to 8%.
Turning to `Cn1cnc2c(F)c(Nc3ccc(Br)cc3Cl)c(C(=O)NOCCO)cc21` [selumetinib], the inhibition at 1 µM in [1] was -3%; in assay [2], 0.473%; in assay [3], 3.45%; in assay [4], 2.83%; in assay [5], 20%; in [6], 0.731%. Further, the inhibition at 1 µM in [7] was -2.15%; in assay [8] (setting [14]) it was 8%; in assay [9], 3.3%; in assay [10] it was -2.38%; in assay [11], -4.36%; in [12] it was -0.157%. The inhibition at 1 µM in assay [13] was -0.945%.
As for `Cc1cc(Nc2ncnc3ccc(NC4=NC(C)(C)CO4)cc23)ccc1Oc1ccn2ncnc2c1` [tucatinib], the inhibition at 1 µM in assay [1] was -3%; in [2] it was 3.53%; in assay [3], 2.39%; in [4], -1.34%; in [5], 31%; in [6] it was 9%. Also, the inhibition at 1 µM in assay [7] was 1.53%; in assay [8], 20%; in [9] it was -0.185%; in [10], 4%; in assay [11], -5.47%; in [12], -1.68%. In [13], the inhibition at 1 µM was -3.62%.
As for `C=CC(=O)N1CCC([C@@H]2CCNc3c(C(N)=O)c(-c4ccc(Oc5ccccc5)cc4)nn32)CC1` [zanubrutinib], the inhibition at 1 µM was 3% in [1]; 0.606% in assay [2]; 1% in [3]; -3.24% in [4]; 3.39% in assay [5]; 11% in assay [6]. The inhibition at 1 µM in assay [7] was -1.15%; in [8] (setting [14]), 67%; in assay [9], 4.22%; in assay [10], -3%; in [11] it was -0.157%; in assay [12] it was -10%. Further, the inhibition at 1 µM in assay [13] was 2.38%.
